Results: patent EP4553083A1, “PEPTIDES AND THEIR USE FOR THE TREATMENT AND/OR PREVENTION OF MULTIPLE SCLEROSIS” (Cellerys AG, priority 2023, dated 2025)
Ends that are not written are not given here.

Test system: not listed separately
Assay: Peptide solubility test in saline (visual: cloudy = insoluble, clear = soluble)
Conditions: at a concentration of 10 mg/ml; visual assessment
Protocol: MBP, MOG and PLP peptides were also tested.
Peptides were added to saline at different concentrations and it was visually assessed whether the resulting sample was cloudy (peptide insoluble) or clear (peptide soluble).

Substance	solubility in saline
LSVGEEDEVS [TSTA3-3 (242-251), LSVGEEDEVS]	soluble in saline
PHNSNFGYSYAKRMI [TSTA3-2 (136-150), PHNSNFGYSYAKRMI]	soluble in saline
KTCHLVRYWISAFPAEFD [RASGRP2 (74-91), KTCHLVRYWISAFPAEFD]	soluble in saline
FRFTPFKQAVKETCA [TSTA3-4 (296-310), FRFTPFKQAVKETCA]	soluble in saline
TAQTRALFEKVQPTH [TSTA3-1 (51-65), TAQTRALFEKVQPTH]	soluble in saline

Same assay, conditions: concentration not given; visual assessment

Substance	solubility in saline
SNSLQVKTCHLVRYWISAFPAEFDLNPELA [RASGRP2 68-97]	insoluble in saline
LVRYWISAFPAEFDLNPE [RASGRP2 78-95, LVRYWISAFPAEFDLNPE]	insoluble in saline
SLQVKTCHLVRYWISAFPAEFDLNPE [RASGRP2 70-95]	insoluble in saline
LVRYWISAFPAEFDL [RASGRP2 78-92, LVRYWISAFPAEFDL]	insoluble in saline
LVRYWISAFP [RASGRP2 78-87, LVRYWISAFP]	not soluble in saline

Test system: TCC14
Assay: Antigen specificity of TCC14 (co-cultivation with monocytes and peptide-coupled RBCs, fluorospot)
Format: cell-based, human
Conditions: irrelevant peptide; 48 hours; Figure 15
Protocol: In order to evaluate whether the IL-10 and IFN-γ secretion upon co-culturing TCC14 with active monocytes and peptide-coupled RBCs is antigen-specific, biotinylated SIN3A* peptide ([…]) (SEQ ID NO: 38) was coupled to RBCs and co-cultured with TCC14 and active monocytes. […] Therefore, it was tested if the SIN3A*-coupled RBCs have any effect on TCC14. Soluble SIN3A* peptide (QPVEFNHAIHYVN) (SEQ ID NO: 39) was used for stimulation.
Monocytes were magnetically isolated from PBMCs of a DR15 donor and seeded at 50×10^3 in each well. 25 ×10^3 of the TCC14 was seeded in each well (final volume 200 µl). Coupling to RBCs was performed with 1.58 mg/ml (0.132 mg/ml × 12) of the respective peptide. 200×10^3 RBCs were added to each well.
IFN-α was directly added into the wells at the time of seeding the cells at 10000 U/ml. In the samples with soluble peptides, 10 µM of the peptides was added to the wells. Plates were incubated for 48 hours and stained for IFN-γ, IL-10 and IL-17 according to the manufacturer's instructions (see fluorospot assay supra).

Substance	effect on the T cell clone (IL-10 and IFN-γ secretion)
QPVEFNHAIHYVN [SIN3A*, irrelevant peptide, a tumor-specific antigen not recognized by TCC14]	neither stimulatory nor inhibitory

Test system: RASGRP2 78-87-specific T cell clones (TCCs)
Assay: T cell reactivity in RASGRP2 (78-87) specific T cell clones (3H-thymidine assay)
Format: cell-based, human
Conditions: 72 hours; four DRB1*15:01-restricted clones; presented by BLS DR2b cells; Figure 6
Protocol: Four RASGRP2 78-87-specific T cell clones (TCCs) (cf. Wang et al., 2020, Cell, 183(5):1264-1281) were tested by 3H-thymidine incorporation (72 hours) for their responses against the biotinylated RASGRP2 (74-91) (SEQ ID NO: 2) peptide "bioRASGRP2 74-91" and a positive control, i.e. stimulation with anti-CD2/3/28-coupled beads. Each of the clones is DRB1*15:01-restricted.
Proliferation was measured 72 h after stimulation by 3H-thymidine (Hartmann Analytic, Braunschweig, Germany) incorporation in a scintillation counter (Wallac 1450, PerkinElmer, Rodgau-Jürgesheim, Germany). Depicted is the fold change over unstimulated control. Each dot represents the mean of 3 repeat wells for each clone. Peptides were presented in the assay by BLS cells transfected with DRA*01:01 and DRB1*15:01 (the heterodimer is referred to as BLS DR2b).

Substance	proliferative response (3H-thymidine incorporation)
biotinylated RASGRP2 (74-91): RASGRP2 (74-91) (SEQ ID NO: 2) coupled to a Biotin-PEG linker (Maleimide-PEG2-Biotin) (KTCHLVRYWISAFPAEFD; also: coupled to Maleimide-PEG2-Biotin linker, site not given here; listed as Homo sapiens)	positive proliferative response
